How the values were obtained:
Format in all cases: in vivo
Corn [1] = assay: Pre-emergence treatment, phytotoxicity to corn; settings: 500 g/ha, 4 weeks after spraying, scale 0 to 10 (0: no effects, 10: complete death)
Protocol: (§1) A rectangular plastic pot having a surface area of 300 cm^2 was filled with sandy loam soil and mixed bed soil which were mixed at a ratio of 1:1, and then, barnyardrass (Echinochloa crusgalli), large crabgrass (Digitaria sanguinalis), blackgrass (Alopecurus myosuroides), and annual bluegrass (Poa annua), which are grass weeds, were seeded thereto. In a pot that was prepared as described above, seeds of corn, soybean, cotton, wheat, and rice were seeded. The pots were irrigated, and one day after, chemicals were sprayed thereto. The spraying was performed by using a track sprayer (R&D Sprayer, USA) equipped with a Teejet 8002 (Spraying Systems Co., USA) nozzle, and a spraying amount was adjusted at 300 L/ha. A spraying solution was prepared by dissolving test materials or references in acetone and adding the same amount of 0.2%(v/v) tween 20 aqueous solution thereto. Application rates were 500, 250, 125, and 62.5 g/ha. The pots were placed in a greenhouse in which during day, the temperature was maintained at a temperature of 25 to 30° C., and during night, the temperature was maintained at a temperature of 15 to 25° C., and the pots were periodically irrigated. Four weeks after the spraying the test materials or References, effects and phytotoxicity of the respective weeds and crops were evaluated in a scale of 0 to 10 (0: no effects, 10: complete death), and results thereof are shown in Table 4 below.

Poa annua [2] = assay: Pre-emergence treatment, herbicidal efficacy on annual bluegrass; settings: 4 weeks after spraying, scale 0 to 10
Protocol: as §1

Echinochloa crusgalli [3] = assay: Pre-emergence treatment, herbicidal efficacy on barnyardgrass; settings: 4 weeks after spraying
Protocol: as §1

Digitaria sanguinalis [4] = assay: Pre-emergence treatment, herbicidal efficacy on large crabgrass; settings: 4 weeks after spraying, scale 0 to 10
Protocol: as §1

Alopecurus myosuroides [5] = assay: Pre-emergence treatment, herbicidal efficacy on blackgrass; settings: 4 weeks after spraying, scale 0 to 10
Protocol: as §1

Soybean [6] = assay: Pre-emergence treatment, phytotoxicity to soybean; settings: 500 g/ha, 4 weeks after spraying, scale 0 to 10 (0: no effects, 10: complete death)
Protocol: as §1

Rice [7] = assay: Pre-emergence treatment, phytotoxicity to rice; settings: 500 g/ha, 4 weeks after spraying, scale 0 to 10 (0: no effects, 10: complete death)
Protocol: as §1

Wheat [8] = assay: Pre-emergence treatment, phytotoxicity to wheat; settings: 500 g/ha, 4 weeks after spraying, scale 0 to 10 (0: no effects, 10: complete death)
Protocol: as §1

Cotton [9] = assay: Pre-emergence treatment, phytotoxicity to cotton; settings: 500 g/ha, 4 weeks after spraying, scale 0 to 10 (0: no effects, 10: complete death)
Protocol: as §1

Digitaria sanguinalis [10] = assay: Post-emergence treatment, herbicidal efficacy on large crabgrass; settings: 4 weeks after spraying, scale 0 to 10
Protocol: as §1
(§2) Pots containing crops and weeds were prepared in the same manner as in Example 7, and then, in the second week in which crops and weeds entered into about 3 leaf stage, the test materials and the references were sprayed thereto in the same manner as described above. The rates were 1,000, 500, 250, and 125 g/ha. Four weeks after the spraying of the test materials or the references, herbicidal efficacy and phytotoxicity to the respective weeds and crops were evaluated in a scale of 0 to 10 (0: no effects, 10: complete death).

Soybean [11] = assay: Post-emergence treatment, phytotoxicity to soybean; settings: post-emergence (about 3 leaf stage), 1,000 g/ha, 4 weeks after spraying, scale 0 to 10 (0: no effects, 10: complete death)
Protocol: as §1, §2

Cotton [12] = assay: Post-emergence treatment, phytotoxicity to cotton; settings: post-emergence (about 3 leaf stage), 1,000 g/ha, 4 weeks after spraying, scale 0 to 10 (0: no effects, 10: complete death)
Protocol: as §1, §2

Rice [13] = assay: Post-emergence treatment, phytotoxicity to rice; settings: post-emergence (about 3 leaf stage), 1,000 g/ha, 4 weeks after spraying, scale 0 to 10 (0: no effects, 10: complete death)
Protocol: as §1, §2

Echinochloa crusgalli [14] = assay: Post-emergence treatment, herbicidal efficacy on barnyardgrass; settings: 4 weeks after spraying, scale 0 to 10
Protocol: as §1, §2

Wheat [15] = assay: Post-emergence treatment, phytotoxicity to wheat; settings: post-emergence (about 3 leaf stage), 1,000 g/ha, 4 weeks after spraying, scale 0 to 10 (0: no effects, 10: complete death)
Protocol: as §1, §2

Corn [16] = assay: Post-emergence treatment, phytotoxicity to corn; settings: post-emergence (about 3 leaf stage), 1,000 g/ha, 4 weeks after spraying, scale 0 to 10 (0: no effects, 10: complete death)
Protocol: as §1, §2

Poa annua [17] = assay: Post-emergence treatment, herbicidal efficacy on annual bluegrass; settings: 4 weeks after spraying, scale 0 to 10
Protocol: as §1, §2

Alopecurus myosuroides [18] = assay: Post-emergence treatment, herbicidal efficacy on blackgrass; settings: 4 weeks after spraying, scale 0 to 10
Protocol: as §1, §2

[19] = 500 g/ha, scale 0 to 10 (0: no effects, 10: complete death)

## CC1(COCc2c(F)cccc2F)CC(c2ccccc2Br)=NO1 (stereo not drawn) [Compound 3, 3-(2-bromophenyl)-5-((2,6-difluorobenzyloxy)methyl)-5-methyl-4,5-dihydroisoxazole]
Corn [1]
  Phytotoxicity, Corn: 2
Poa annua [2]; 62.5 g/ha
  Herbicidal efficacy, Poa annua: 4
Poa annua [2]; 125 g/ha
  Herbicidal efficacy, Poa annua: 7
Poa annua [2]; 250 g/ha
  Herbicidal efficacy, Poa annua: 8
Poa annua [2]; 500 g/ha
  Herbicidal efficacy, Poa annua: 10
Echinochloa crusgalli [3]; 62.5 g/ha, scale 0 to 10
  Herbicidal efficacy, Echinochloa crusgalli: 10
Echinochloa crusgalli [3]; 125 g/ha, scale 0 to 10
  Herbicidal efficacy, Echinochloa crusgalli: 10
Echinochloa crusgalli [3]; 250 g/ha, scale 0 to 10
  Herbicidal efficacy, Echinochloa crusgalli: 10
Echinochloa crusgalli [3]; [19]
  Herbicidal efficacy, Echinochloa crusgalli: 10
Digitaria sanguinalis [4]; 62.5 g/ha
  Herbicidal efficacy, Digitaria sanguinalis: 10
Digitaria sanguinalis [4]; 125 g/ha
  Herbicidal efficacy, Digitaria sanguinalis: 10
Digitaria sanguinalis [4]; 250 g/ha
  Herbicidal efficacy, Digitaria sanguinalis: 10
Digitaria sanguinalis [4]; 500 g/ha
  Herbicidal efficacy, Digitaria sanguinalis: 10
Alopecurus myosuroides [5]; 62.5 g/ha
  Herbicidal efficacy, Alopecurus myosuroides: 4
Alopecurus myosuroides [5]; 125 g/ha
  Herbicidal efficacy, Alopecurus myosuroides: 4
Alopecurus myosuroides [5]; 250 g/ha
  Herbicidal efficacy, Alopecurus myosuroides: 5
Alopecurus myosuroides [5]; 500 g/ha
  Herbicidal efficacy, Alopecurus myosuroides: 7
Soybean [6]
  Phytotoxicity, Soybean: 0
Rice [7]
  Phytotoxicity, Rice: 0
Wheat [8]
  Phytotoxicity, Wheat: 0
Cotton [9]
  Phytotoxicity, Cotton: 0

## CC1(COCc2ccccc2F)CC(c2ccccc2[N+](=O)[O-])=NO1 (stereo not drawn) [Reference A]
Corn [1]
  Phytotoxicity, Corn: 0
Poa annua [2]; 62.5 g/ha
  Herbicidal efficacy, Poa annua: 0
Poa annua [2]; 125 g/ha
  Herbicidal efficacy, Poa annua: 2
Poa annua [2]; 250 g/ha
  Herbicidal efficacy, Poa annua: 5
Poa annua [2]; 500 g/ha
  Herbicidal efficacy, Poa annua: 9
Digitaria sanguinalis [10]; post-emergence, 125 g/ha
  Herbicidal efficacy, Digitaria sanguinalis: 0
Digitaria sanguinalis [10]; post-emergence, 250 g/ha
  Herbicidal efficacy, Digitaria sanguinalis: 1
Digitaria sanguinalis [10]; post-emergence, 500 g/ha
  Herbicidal efficacy, Digitaria sanguinalis: 4
Digitaria sanguinalis [10]; post-emergence, 1,000 g/ha
  Herbicidal efficacy, Digitaria sanguinalis: 5
Echinochloa crusgalli [3]; 62.5 g/ha, scale 0 to 10
  Herbicidal efficacy, Echinochloa crusgalli: 0
Echinochloa crusgalli [3]; 125 g/ha, scale 0 to 10
  Herbicidal efficacy, Echinochloa crusgalli: 2
Echinochloa crusgalli [3]; 250 g/ha, scale 0 to 10
  Herbicidal efficacy, Echinochloa crusgalli: 6
Echinochloa crusgalli [3]; [19]
  Herbicidal efficacy, Echinochloa crusgalli: 10
Soybean [11]
  Phytotoxicity, Soybean: 1
Digitaria sanguinalis [4]; 62.5 g/ha
  Herbicidal efficacy, Digitaria sanguinalis: 0
Digitaria sanguinalis [4]; 125 g/ha
  Herbicidal efficacy, Digitaria sanguinalis: 2
Digitaria sanguinalis [4]; 250 g/ha
  Herbicidal efficacy, Digitaria sanguinalis: 6
Digitaria sanguinalis [4]; 500 g/ha
  Herbicidal efficacy, Digitaria sanguinalis: 10
Alopecurus myosuroides [5]; 62.5 g/ha
  Herbicidal efficacy, Alopecurus myosuroides: 0
Alopecurus myosuroides [5]; 125 g/ha
  Herbicidal efficacy, Alopecurus myosuroides: 0
Alopecurus myosuroides [5]; 250 g/ha
  Herbicidal efficacy, Alopecurus myosuroides: 3
Alopecurus myosuroides [5]; 500 g/ha
  Herbicidal efficacy, Alopecurus myosuroides: 10
Cotton [12]
  Phytotoxicity, Cotton: 0
Soybean [6]
  Phytotoxicity, Soybean: 0
Rice [7]
  Phytotoxicity, Rice: 0
Rice [13]
  Phytotoxicity, Rice: 0
Echinochloa crusgalli [14]; post-emergence, 125 g/ha
  Herbicidal efficacy, Echinochloa crusgalli: 0
Echinochloa crusgalli [14]; post-emergence, 250 g/ha
  Herbicidal efficacy, Echinochloa crusgalli: 2
Echinochloa crusgalli [14]; post-emergence, 500 g/ha
  Herbicidal efficacy, Echinochloa crusgalli: 5
Echinochloa crusgalli [14]; post-emergence, 1,000 g/ha
  Herbicidal efficacy, Echinochloa crusgalli: 7
Wheat [15]
  Phytotoxicity, Wheat: 0
Wheat [8]
  Phytotoxicity, Wheat: 0
Corn [16]
  Phytotoxicity, Corn: 0
Cotton [9]
  Phytotoxicity, Cotton: 0
Poa annua [17]; post-emergence, 125 g/ha
  Herbicidal efficacy, Poa annua: 0
Poa annua [17]; post-emergence, 250 g/ha
  Herbicidal efficacy, Poa annua: 0
Poa annua [17]; post-emergence, 500 g/ha
  Herbicidal efficacy, Poa annua: 3
Poa annua [17]; post-emergence, 1,000 g/ha
  Herbicidal efficacy, Poa annua: 5
Alopecurus myosuroides [18]; post-emergence, 125 g/ha
  Herbicidal efficacy, Alopecurus myosuroides: 0
Alopecurus myosuroides [18]; post-emergence, 250 g/ha
  Herbicidal efficacy, Alopecurus myosuroides: 0
Alopecurus myosuroides [18]; post-emergence, 500 g/ha
  Herbicidal efficacy, Alopecurus myosuroides: 0
Alopecurus myosuroides [18]; post-emergence, 1,000 g/ha
  Herbicidal efficacy, Alopecurus myosuroides: 2

Source: patent US9439432B2, “Phenylisoxazoline-based compound having herbicidal activity and use thereof” (MOGHU RESEARCH CENTER LTD, priority 2011, dated 2016)
